Experiment [1] has as its target T1, Potassium/sodium hyperpolarization-activated cyclic nucleotide-gated channel 1 (Homo sapiens, UniProt O60741).
T1 sequence (O60741 whole entry): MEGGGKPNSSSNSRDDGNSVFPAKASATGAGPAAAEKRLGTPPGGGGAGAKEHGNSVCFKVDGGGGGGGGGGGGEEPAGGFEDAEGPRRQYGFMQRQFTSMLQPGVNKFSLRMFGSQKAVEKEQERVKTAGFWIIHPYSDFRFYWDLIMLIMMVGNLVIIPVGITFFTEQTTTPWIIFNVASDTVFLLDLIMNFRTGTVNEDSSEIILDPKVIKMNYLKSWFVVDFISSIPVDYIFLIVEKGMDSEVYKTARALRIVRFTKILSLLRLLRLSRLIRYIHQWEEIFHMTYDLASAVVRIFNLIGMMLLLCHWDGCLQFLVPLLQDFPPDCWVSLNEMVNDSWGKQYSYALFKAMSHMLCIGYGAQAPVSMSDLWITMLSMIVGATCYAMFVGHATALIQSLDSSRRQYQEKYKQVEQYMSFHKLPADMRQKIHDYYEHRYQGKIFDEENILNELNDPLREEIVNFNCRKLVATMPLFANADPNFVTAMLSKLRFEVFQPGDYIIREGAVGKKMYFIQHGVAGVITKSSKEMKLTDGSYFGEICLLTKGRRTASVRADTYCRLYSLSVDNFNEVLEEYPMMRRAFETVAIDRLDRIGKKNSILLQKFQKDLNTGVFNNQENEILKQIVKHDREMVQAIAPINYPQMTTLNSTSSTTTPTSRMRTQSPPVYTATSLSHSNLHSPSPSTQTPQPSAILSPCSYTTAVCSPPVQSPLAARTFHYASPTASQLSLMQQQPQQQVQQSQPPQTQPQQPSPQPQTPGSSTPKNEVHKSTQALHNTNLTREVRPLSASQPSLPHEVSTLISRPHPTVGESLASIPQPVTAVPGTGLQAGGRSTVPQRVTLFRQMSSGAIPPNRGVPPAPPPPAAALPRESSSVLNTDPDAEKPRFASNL
The experiment in a line: Inhibition of human HCN1 heterologously expressed in HEK-293 cells after 30 mins by VIPR assay. The class given is cell-based, HEK293.

Experiment [2] addresses T2, Potassium/sodium hyperpolarization-activated cyclic nucleotide-gated channel 3 (Homo sapiens, UniProt Q9P1Z3).
T2 sequence (Q9P1Z3 whole entry): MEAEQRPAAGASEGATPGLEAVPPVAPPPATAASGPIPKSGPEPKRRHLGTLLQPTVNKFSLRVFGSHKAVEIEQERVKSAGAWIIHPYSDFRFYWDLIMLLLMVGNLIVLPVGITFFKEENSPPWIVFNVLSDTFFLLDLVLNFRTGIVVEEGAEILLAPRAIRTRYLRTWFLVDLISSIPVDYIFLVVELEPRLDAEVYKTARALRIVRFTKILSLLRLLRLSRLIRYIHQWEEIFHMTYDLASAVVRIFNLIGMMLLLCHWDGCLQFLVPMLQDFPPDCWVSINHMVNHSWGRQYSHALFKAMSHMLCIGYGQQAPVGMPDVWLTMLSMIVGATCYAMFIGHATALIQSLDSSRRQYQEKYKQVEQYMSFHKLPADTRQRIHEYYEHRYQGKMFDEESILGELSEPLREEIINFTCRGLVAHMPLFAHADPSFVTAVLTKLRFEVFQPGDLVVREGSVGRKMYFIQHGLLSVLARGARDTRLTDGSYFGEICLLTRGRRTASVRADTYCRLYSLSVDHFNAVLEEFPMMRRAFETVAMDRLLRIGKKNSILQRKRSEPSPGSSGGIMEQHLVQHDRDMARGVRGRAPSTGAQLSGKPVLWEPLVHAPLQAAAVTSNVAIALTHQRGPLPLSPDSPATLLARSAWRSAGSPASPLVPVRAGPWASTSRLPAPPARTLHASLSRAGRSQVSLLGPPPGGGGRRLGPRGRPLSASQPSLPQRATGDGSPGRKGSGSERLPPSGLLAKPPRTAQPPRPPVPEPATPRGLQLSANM
The experiment in a line: Inhibition of human HCN3 heterologously expressed in HEK-293 cells after 30 mins by VIPR assay. The class given is cell-based, HEK293.

pIC50: −log10 of the molar value.

What is called pIC50 is the negative decadic logarithm of the IC50, by convention in mol/L. A low value points to a large IC50. In the case of `CCOc1ccccc1C(=O)NCC1(N2CCNCC2)CCCCC1`, the negative logarithm of the IC50 (pIC50) is 6.40 in experiment [1] and 5.50 in experiment [2].

Values taken from ChEMBL document CHEMBL1821572, “Discovery of a novel series of selective HCN1 blockers” (Bioorg Med Chem Lett, 2011).
